Measured values reported in the NIST ThermoML archive (doi:10.1016/j.jct.2006.03.021).
Numbers after ± are expanded uncertainties.

Assay: molar heat capacity at constant pressure
Conditions: 101.33 kPa, Crystal, Vacuum adiabatic calorimetry

O.O.OC[C@H]1O[C@H](O[C@H]2O[C@H](CO)[C@@H](O)[C@H](O)[C@H]2O)[C@H](O)[C@@H](O)[C@@H]1O [D-(+)-trehalose dihydrate]
Conditions | molar heat capacity at constant pressure [J/K/mol]
13.55 K | 6.385 ± 0.061
14.6 K | 7.838 ± 0.071
15 K | 8.51 ± 0.08
15.59 K | 9.345 ± 0.082
16.61 K | 10.96 ± 0.092
17.67 K | 12.73 ± 0.1
18.75 K | 14.64 ± 0.12
19.81 K | 16.57 ± 0.13
20 K | 16.78 ± 0.13
20.85 K | 18.51 ± 0.14
21.9 K | 20.53 ± 0.15
22.93 K | 22.57 ± 0.17
23.97 K | 24.62 ± 0.18
25.02 K | 26.77 ± 0.19
26.11 K | 29 ± 0.2
27.24 K | 31.35 ± 0.21
28.42 K | 33.79 ± 0.23
29.57 K | 36.22 ± 0.24
30 K | 37.06 ± 0.24
30.71 K | 38.61 ± 0.25
31.92 K | 41.15 ± 0.27
33.18 K | 43.81 ± 0.28
34.5 K | 46.58 ± 0.3
35.82 K | 49.36 ± 0.32
37.15 K | 52.14 ± 0.33
38.46 K | 54.9 ± 0.35
39.78 K | 57.62 ± 0.36
40 K | 58.13 ± 0.37
41.15 K | 60.45 ± 0.38
42.54 K | 63.33 ± 0.4
43.91 K | 66.14 ± 0.42
45.27 K | 68.9 ± 0.43
46.63 K | 71.67 ± 0.45
48.02 K | 74.49 ± 0.47
49.43 K | 77.32 ± 0.49
50 K | 78.42 ± 0.49
50.88 K | 80.24 ± 0.5
52.39 K | 83.22 ± 0.52
53.93 K | 86.27 ± 0.54
55.51 K | 89.39 ± 0.56
56.3 K | 90.95 ± 0.57
57.99 K | 94.25 ± 0.59
59.66 K | 97.53 ± 0.61
60 K | 98.14 ± 0.61
61.39 K | 100.85 ± 0.63
63.18 K | 104.27 ± 0.65
64.99 K | 107.74 ± 0.67
66.83 K | 111.22 ± 0.69
68.66 K | 114.67 ± 0.71
70 K | 117.19 ± 0.73
70.49 K | 118.11 ± 0.74
72.33 K | 121.52 ± 0.76
74.17 K | 124.94 ± 0.78
76.04 K | 128.4 ± 0.8
77.89 K | 131.81 ± 0.82
79.75 K | 135.21 ± 0.84
80 K | 135.65 ± 0.84
81.63 K | 138.61 ± 0.86
83.51 K | 142.01 ± 0.88
85.4 K | 145.39 ± 0.9
87.31 K | 148.81 ± 0.92
89.22 K | 152.17 ± 0.95
90 K | 153.54 ± 0.96
91.14 K | 155.56 ± 0.97
93.09 K | 158.95 ± 0.99
95.06 K | 162.41 ± 1
97.04 K | 165.84 ± 1
98.99 K | 169.18 ± 1.1
100 K | 170.91 ± 0.43
100.9 K | 172.45 ± 0.44
102.78 K | 175.65 ± 0.44
104.63 K | 178.78 ± 0.45
106.45 K | 181.89 ± 0.45
108.25 K | 184.88 ± 0.46
110 K | 187.82 ± 0.47
110.03 K | 187.85 ± 0.47
111.78 K | 190.76 ± 0.47
113.51 K | 193.65 ± 0.48
115.22 K | 196.52 ± 0.48
116.9 K | 199.3 ± 0.49
118.57 K | 202 ± 0.5
120 K | 204.35 ± 0.5
120.3 K | 204.92 ± 0.5
122.1 K | 207.75 ± 0.51
123.94 K | 210.99 ± 0.51
125.83 K | 213.81 ± 0.52
127.75 K | 216.99 ± 0.53
129.72 K | 220.18 ± 0.53
130 K | 220.6 ± 0.53
131.71 K | 223.29 ± 0.54
133.7 K | 226.52 ± 0.55
135.72 K | 229.81 ± 0.55
137.73 K | 232.95 ± 0.56
139.73 K | 236.18 ± 0.57
140 K | 236.57 ± 0.57
141.73 K | 239.27 ± 0.57
143.74 K | 242.56 ± 0.58
145.72 K | 245.6 ± 0.58
147.72 K | 248.78 ± 0.59
149.71 K | 251.89 ± 0.6
150 K | 252.32 ± 0.6
151.71 K | 254.95 ± 0.6
153.75 K | 258.14 ± 0.61
155.79 K | 261.37 ± 0.62
157.84 K | 264.6 ± 0.62
159.89 K | 267.82 ± 0.63
160 K | 267.93 ± 0.63
161.93 K | 270.95 ± 0.64
163.96 K | 274.13 ± 0.64
165.96 K | 277.24 ± 0.65
167.95 K | 280.33 ± 0.66
169.92 K | 283.36 ± 0.66
170 K | 283.46 ± 0.66
171.88 K | 286.43 ± 0.67
173.83 K | 289.42 ± 0.68
175.76 K | 292.43 ± 0.68
177.63 K | 295.3 ± 0.69
179.56 K | 298.22 ± 0.69
180 K | 299 ± 0.7
181.49 K | 301.33 ± 0.7
183.41 K | 304.3 ± 0.71
185.35 K | 307.28 ± 0.71
187.29 K | 310.3 ± 0.72
189.22 K | 313.27 ± 0.72
190 K | 314.53 ± 0.73
191.14 K | 316.25 ± 0.73
193.07 K | 319.27 ± 0.74
195.02 K | 322.27 ± 0.74
196.95 K | 325.32 ± 0.75
198.87 K | 328.28 ± 0.76
200 K | 330.09 ± 0.76
200.8 K | 331.37 ± 0.76
202.74 K | 334.35 ± 0.77
204.67 K | 337.37 ± 0.78
206.6 K | 340.29 ± 0.78
208.53 K | 343.33 ± 0.79
210 K | 345.69 ± 0.79
210.48 K | 346.48 ± 0.79
212.42 K | 349.61 ± 0.8
214.34 K | 352.52 ± 0.81
216.28 K | 355.42 ± 0.81
220 K | 361.36 ± 0.83
220.18 K | 361.71 ± 0.83
222.12 K | 364.67 ± 0.83
224.04 K | 367.73 ± 0.84
225.95 K | 370.88 ± 0.85
227.85 K | 373.65 ± 0.85
229.74 K | 376.66 ± 0.86
230 K | 377.12 ± 0.86
231.62 K | 379.52 ± 0.86
233.49 K | 382.68 ± 0.87
235.35 K | 385.55 ± 0.88
237.2 K | 388.42 ± 0.88
239.04 K | 391.36 ± 0.89
240 K | 392.98 ± 0.89
240.87 K | 394.34 ± 0.89
242.69 K | 397.3 ± 0.9
244.52 K | 400.18 ± 0.91
246.37 K | 403.04 ± 0.91
248.24 K | 406.16 ± 0.92
250 K | 408.95 ± 0.92
250.12 K | 409.17 ± 0.93
252 K | 412.27 ± 0.93
253.8 K | 415.1 ± 0.94
255.61 K | 417.77 ± 0.94
257.43 K | 420.98 ± 0.95
259.28 K | 423.94 ± 0.96
260 K | 425.06 ± 0.96
261.14 K | 426.99 ± 0.96
263.01 K | 430.01 ± 0.97
264.88 K | 433.05 ± 0.98
266.76 K | 435.05 ± 0.98
268.64 K | 439.07 ± 0.99
270 K | 441.31 ± 0.99
270.53 K | 442.21 ± 0.99
272.4 K | 445.33 ± 1
274.28 K | 448.34 ± 1
276.17 K | 451.18 ± 1
278.06 K | 454.48 ± 1
279.95 K | 457.55 ± 1
280 K | 457.7 ± 1
281.85 K | 460.72 ± 1
283.75 K | 463.95 ± 1
285.66 K | 466.99 ± 1.1
287.57 K | 470.12 ± 1.1
289.49 K | 473.55 ± 1.1
290 K | 474.26 ± 1.1
291.41 K | 476.85 ± 1.1
293.32 K | 479.88 ± 1.1
295.23 K | 482.95 ± 1.1
297.16 K | 486.02 ± 1.1
298.15 K | 487.87 ± 1.1
299.07 K | 489.45 ± 1.1
300 K | 490.98 ± 1.1
300.98 K | 492.63 ± 1.1
